Reference: patent US7115596B2, “Thiazole compounds as integrin receptor antagonists derivatives” (Pharmacia Corporation, priority 2002, dated 2006)
Where a name gives a salt, the structure may show the parent alone.

Experiment: Plasma level upon oral dosing (AUC-PO) in rat
Type: in vivo
Details: per dose; for Rat PK-AUC/dose: second table; for Rat AUC/Dose: Table 1

Row | Rat PK-AUC/dose | Rat AUC/Dose | SMILES
1 | 2.2 ug-h/m/L/mg/Kg | – | COc1cc(OC)cc(C(CC(=O)O)Cc2csc(CCCc3ccc4c(n3)NCCC4)n2)c1 (stereo not drawn) [Example 5, 3-(3,5-dimethoxyphenyl)-4-{2-[3-(5,6,7,8-tetrahydro-1,8-naphthyridin-2-yl)propyl]-1,3-thiazol-4-yl}butanoic acid hydrochloride]
2 | – | 0.0634 ug-/m/L/mg/Kg | O=C(O)C[C@H](Cc1csc(CCCCNc2cc(N3CCOCC3)ccn2)n1)c1ccc2c(c1)OCO2
3 | – | 6.81 ug-/m/L/mg/Kg | O=C(O)CC(Cc1csc(CCCc2ccc3c(n2)NCCC3)n1)c1ccc2c(c1)OCO2 (stereo not drawn) [drawing 98]
4 | 1.6 ug-h/m/L/mg/Kg | – | COc1ccc(C(CC(=O)O)Cc2csc(CCCc3ccc4c(n3)NCCC4)n2)cn1 (stereo not drawn) [Example 13, 3-(6-Methoxypyridin-3-yl)-4-{2-[3-(5,6,7,8-tetrahydro-1,8-naphthyridin-2-yl)propyl]-1,3-thiazol-4-yl}butanoic acid hydrochloride]
5 | 8.7 ug-h/m/L/mg/Kg | – | O=C(O)C[C@H](Cc1csc(CCCc2ccc3c(n2)NCCC3)n1)c1ccc2c(c1)OCO2 [Example 7, (3S)-3-(1,3-benzodioxol-5-yl)-4-{2-[3-(5,6,7,8-tetrahydro-1,8-naphthyridin-2-yl)propyl]-1,3-thiazol-4-yl}butanoic acid hydrochloride]
6 | 2.5 ug-h/m/L/mg/Kg | – | Cc1nc2cc(C(CC(=O)O)Cc3csc(CCCc4ccc5c(n4)NCCC5)n3)ccc2s1 (stereo not drawn) [Example 9, 3-(2-methyl-1,3-benzothiazol-5-yl)-4-{2-[3-(5,6,7,8-tetrahydro-1,8-naphthyridin-2-yl)propyl]-1,3-thiazol-4-yl}butanoic acid hydrochloride]
7 | 1.7 ug-h/m/L/mg/Kg | – | O=C(O)CC(Cc1csc(CCCc2ccc3c(n2)NCCC3)n1)c1cnc(C2CC2)s1 (stereo not drawn) [Example 16, 3-(2-Cyclopropyl-1,3-thiazol-5-yl)-4-{2-[3-(5,6,7,8-tetrahydro-1,8-naphthyridin-2-yl)propyl]-1,3-thiazol-4-yl}butanoic acid hydrochloride]
8 | 6.8 ug-h/m/L/mg/Kg | – | O=C(O)CC(Cc1csc(CCCc2ccc3c(n2)NCCC3)n1)c1ccc2c(c1)OCO2 (stereo not drawn) [Example 6, 3-(1,3-benzodioxol-5-yl)-4-{2-[3-(5,6,7,8-tetrahydro-1,8-naphthyridin-2-yl)propyl]-1,3-thiazol-4-yl}butanoic acid hydrochloride]
9 | 1.8 ug-h/m/L/mg/Kg | – | COc1ccc(C(CC(=O)O)Cc2csc(CCCc3ccc4c(n3)NCCC4)n2)cc1F (stereo not drawn) [Example 2, 3-(3-fluoro-4-methoxyphenyl)-4-{2-[3-(5,6,7,8-tetrahydro-1,8-naphthyridin-2-yl)propyl]-1,3-thiazol-4-yl}butanoic acid hydrochloride]
